According to patent publication EP0848706B1, “SUBSTITUTED BENZENE-FUSED HETEROCYCLICS AS NEUROKININ ANTAGONISTS” (SCHERING CORPORATION, priority 1995, dated 1996):
Where two headings read alike, the source gives them in different places. One block for each molecule: values may come before it.

Experiments:
[1] = target: T1, human NK-2 receptor (Homo sapiens, UniProt P21452); assay: Neurokinin receptor binding assay, NK-2 ([3H]-Neurokinin A, CHO cell membranes); conditions: for inhibition at 1 µM: read-out: % Inhibition NK2 (1µM dose); for Ki: Ki according to Cheng and Prusoff from competition binding curves, read-out: Ki (NK2)
T1 construct: expressed in transfected cells; host or cells: Chinese Hamster ovary (CHO) cells
T1 sequence (P21452 1-398): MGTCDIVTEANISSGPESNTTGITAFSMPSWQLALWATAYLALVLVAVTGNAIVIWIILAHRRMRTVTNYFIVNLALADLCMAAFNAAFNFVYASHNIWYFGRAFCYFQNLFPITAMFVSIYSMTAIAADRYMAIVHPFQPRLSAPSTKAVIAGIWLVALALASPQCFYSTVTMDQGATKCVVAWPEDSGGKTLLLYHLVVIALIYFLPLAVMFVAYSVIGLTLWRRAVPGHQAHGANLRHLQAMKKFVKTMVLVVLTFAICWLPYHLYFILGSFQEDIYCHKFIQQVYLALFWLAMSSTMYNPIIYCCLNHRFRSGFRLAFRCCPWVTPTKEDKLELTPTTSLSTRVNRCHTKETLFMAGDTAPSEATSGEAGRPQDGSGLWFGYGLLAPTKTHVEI
Protocol: (§1) Chinese Hamster ovary (CHO) cells transfected with the coding regions for the human neurokinin 1 (NK1) of the human neurokinin 2 (NK2) receptors are grown in Dulbecco's minimal essential medium supplemented with 10% fetal calf serum, 0.1 mM non-essential amino acids, 2 mM glutamine, 100units/ml of penicillin and streptomycin, and 0.8 mg of G418/ml at 37°C in a humidified atmosphere containing 5% CO2.
(§2) Cells are detached from T-175 flasks with a sterile solution containing 5mM EDTA in phosphate buffered saline. Cells are harvested by centrifugation and washed in RPMI media at […] for 5 minutes. The pellet is resuspended inTris-HCl (pH7.4) containing 1 uM phsphoramidon and 4 ug/ml of chymostatin at a cell density of 30 x 10^6 cells/ml. The suspension is then homogenized in a Brinkman Polytron (setting 5) for 30-45 seconds. The homogenate is centrifuged at 800 x g for 5 min at 4°C to collect unbroken cells and nuclei. The supernatant is centrifuged in a Sorvall RC5C at 19,000 rpm ([…]) for 30 min at 4°C. The pellet is resuspended, an aliquot is removed for a protein determination (BCA) and washed again. The resulting pellet is stored at -80°C.
(§3) To assay receptor binding, 50 µl of [^3H]-Substance P (9-Sar, 11-Met) (specific activity 41 Ci/mmol) (Dupont-NEN) (0.8 nM for the NK-1 assay) or [^3H]-Neurokinin A (specific activity 114 Ci/ mmole) (Zenca) (1.0 nM for the NK-2 assay) is added to tubes containing buffer (50 mM Tris-HCl (pH 7.4) with 1 mM MnCl2 and 0.2% Bovine Serum Albumin) and either DMSO or test compound. Binding is initiated by the addition of 100µl of membrane (10-20 µg) containing the human NK-1 or NK-2 receptor in a final volume of 200 µl. After 40 minutes at room temperature, the reaction is stopped by rapid filtration onto Whatman GF/C filters which have been presoaked in 0.3% polyethylenimine. Filters are washed 2 times with 3 ml of 50 mM Tris-HCl (pH7.4). Filters are added to 6 mls of Ready-Safe liquid scintillation cocktail and quantified by liquid scintillation spectrometry in a LKB 1219 RackBeta counter. Non-specific binding is determined by the addition of either 1 µM of CP-99994 (NK-1) or 1µM SR-48968 (NK-2) (both synthesized by the chemistry department of Schering-Plough Research Institute). IC50 values are determined from competition binding curves and Ki values are determined according to Cheng and Prusoff using the experimentally determined value of 0.8 nM for the NK-1 receptor and 2.4 nM for the NK-2 receptor.
(§4) % Inhibition is the difference between the percent of maximum specific binding (MSB) and 100%. The percent of MSB is defined by the following equation, wherein "dpm" is disintegrations per minute: % MSB =((dpm of unknown) - (dpm of nonspecific binding))/((dpm of total binding) - (dpm of nonspecific binding))X 100 [formula]

[2] = target: T2, human NK-1 receptor (Homo sapiens, UniProt P25103); assay: Neurokinin receptor binding assay, NK-1 ([3H]-Substance P, CHO cell membranes); conditions: for inhibition at 1 µM: read-out: % Inhibition NK1 (1µM dose); for Ki: Ki according to Cheng and Prusoff from competition binding curves, read-out: Ki(NK1)
T2 construct: expressed in transfected cells; host or cells: Chinese Hamster ovary (CHO) cells
Protocol: as §1, §2, §3, §4

[3] = target: T3, NK3 (Homo sapiens, UniProt P29371); assay: NK3 activity, procedure similar to the literature (Molecular Pharmacol., 48 (1995), p. 711-716); format: binding
T3 sequence (P29371 1-465): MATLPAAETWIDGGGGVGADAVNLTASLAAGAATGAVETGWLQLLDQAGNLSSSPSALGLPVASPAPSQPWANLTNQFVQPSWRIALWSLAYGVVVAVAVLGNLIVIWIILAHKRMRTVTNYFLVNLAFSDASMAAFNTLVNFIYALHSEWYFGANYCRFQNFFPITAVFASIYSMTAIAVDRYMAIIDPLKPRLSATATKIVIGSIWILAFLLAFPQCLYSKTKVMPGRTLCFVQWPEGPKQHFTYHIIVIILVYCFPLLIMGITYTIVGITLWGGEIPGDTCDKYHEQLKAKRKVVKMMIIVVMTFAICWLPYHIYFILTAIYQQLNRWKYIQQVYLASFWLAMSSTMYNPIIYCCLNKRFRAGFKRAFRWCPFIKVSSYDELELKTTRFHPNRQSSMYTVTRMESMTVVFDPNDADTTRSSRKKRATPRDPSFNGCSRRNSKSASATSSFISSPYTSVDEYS
Protocol: NK3 activity is determined by following a procedure similar to that described in the literature, e.g., Molecular Pharmacol., 48 (1995), p. 711-716.

[4] = 1µM dose, % inhibition = 100% minus percent of maximum specific binding

T2 sequence (P25103 whole entry): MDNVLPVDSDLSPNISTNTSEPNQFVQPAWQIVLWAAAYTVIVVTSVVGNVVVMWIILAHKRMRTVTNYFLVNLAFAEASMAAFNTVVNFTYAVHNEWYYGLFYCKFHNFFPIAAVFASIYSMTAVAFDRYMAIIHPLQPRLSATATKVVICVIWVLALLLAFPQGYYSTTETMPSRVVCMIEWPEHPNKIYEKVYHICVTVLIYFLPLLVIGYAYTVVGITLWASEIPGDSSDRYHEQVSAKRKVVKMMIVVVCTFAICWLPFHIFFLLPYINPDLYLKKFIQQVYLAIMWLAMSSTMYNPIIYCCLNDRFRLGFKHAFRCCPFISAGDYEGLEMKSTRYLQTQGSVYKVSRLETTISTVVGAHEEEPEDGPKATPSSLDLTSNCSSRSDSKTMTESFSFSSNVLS

inhibition at 1 µM [1, 4]: 96%
Ki [1]: 59 nM
inhibition at 1 µM [2, 4]: 69%
Ki [2]: 165 nM
SMILES: CN(CCc1c[nH]c2ccccc12)CCC(CN(C)C(=O)c1ccc2c(c1)OCO2)c1ccc(Cl)c(Cl)c1 (stereo not shown) [Example 12a]

Ki [1]: 250 nM
Ki [2]: 23 nM
SMILES: C=CCN(CCc1c[nH]c2ccccc12)CCC(CN(C)C(=O)c1cc(OC)c(OC)c(OC)c1)c1ccc(Cl)c(Cl)c1 (stereo not shown) [Example 9b]

Ki [1]: 30 nM
Ki [2]: 233 nM
SMILES: COc1cc(OC)cc(C(=O)N2CCC(CCN(C)CCc3c[nH]c4ccccc34)(c3ccc(Cl)c(Cl)c3)C2)c1 (stereo not shown) [Example 14a]

Further lines, the molecule ahead of its results:

SMILES: COc1cc(C(=O)N(C)CC(CCN(C)CCc2c[nH]c3ccccc23)c2ccc(Cl)c(Cl)c2)cc(OC)c1OC (stereo not shown) [Example 2]
Ki [1]: 33 nM
inhibition at 1 µM [1]: 87%
Ki [2]: 25 nM
inhibition at 1 µM [2]: 81%
Ki [3]: 448 nM

SMILES: COc1cc(C(=O)N(C)CC(CCN(C)CCc2c[nH]c3ccc(F)cc23)c2ccc(Cl)c(Cl)c2)cc(OC)c1OC (racemic) [Example 7c]
Ki [1]: 10 nM
inhibition at 1 µM [1]: 100%
Ki [2]: 12 nM
